From patent publication US11111237B2, “Bicyclic compound and use thereof” (SK BIOPHARMACEUTICALS CO., LTD., priority 2019, dated 2021)

Biological target: PRMT5-MEP50 enzyme complex (Homo sapiens (Human), UniProt O14744)
Assay: PRMT5 enzyme activity in vitro assay (methylation of histone H4R3, ELISA absorbance at 450 nm)
Assay type: biochemical
Conditions: SAM, histone H4 peptide, room temperature 2 hours, 8 points from 10 μM to 0.128 nM
Procedure: Method for Measuring Enzyme Activity
In vitro assay: PRMT5-MEP50 enzyme complex, cofactor S-adenosylmethionine (SAM) and histone H4 peptide were reacted in vitro, and methylation of arginine (H4R3)—which is the third amino acid of histone H4—was measured in order to measure the enzyme activity of PRMT5.
Reagents: PRMT5-MEP50 enzyme complex (Catalog No. 51045), blocking buffer (52100-B), histone methyltransferase reaction buffer 2 (4×HMT assay buffer 2, Catalog No. 52170), and primary antibody (primary antibody 4-3, Catalog No. 52150) were purchased from BPS Bioscience (USA). The histone H4 peptide (1-20 amino acids) was custom made by Komabiotech (Korea) and used. S-adenosylmethionine was purchased from NEB (New England Biolabs, USA, Catalog No. B9003S). Plates for coating histone H4 peptide, washing buffer and color development reagent were purchased from the following vendors: Plate (Immobilizer™-Amino Plate, NUNC, Denmark, Catalog No. 436023), carbonate-bicarbonate buffer (Sigma-Aldrich, USA, Catalog No. C3041), washing buffer (10×TBST, Biosesang, Korea, Catalog No. T2005), TMB ELISA substrate (Abcam, UK, Catalog No. ab210902), horseradish peroxidase (HRP)-conjugated antibody (Abcam, UK, Catalog No. ab6721).
Experimental procedure: The histone H4 peptide was diluted with carbonate-bicarbonate buffer and prepared to 100 μg/mL, and then dispensed onto the plate per 100 μL and reacted at 37° C. for 1 hour. PRMT5-MEP50 enzyme complex and S-adenosylmethionine were diluted with histone methyltransferase reaction buffer to prepare 5 μg/mL and 2 μM, respectively, and then 20 μL of PRMT5-MEP50 enzyme complex and 25 μL of S-adenosylmethionine were dispensed onto the plate prepared above. 5 μL of the compound diluted with 10% dimethyl sulfoxide solution was added thereto and reacted at room temperature for 2 hours (final volume=50 μL). The concentration of the compound was diluted 1:5 from 10 μM until the lowest concentration of 0.128 nM, and 8 points were used for the test. After preparing the primary antibody by diluting 1:2000 with blocking buffer, 100 μL was added to the plate and reacted at room temperature for 1 hour. After preparing horseradish peroxidase-conjugated antibody by diluting 1:10,000 with blocking buffer, 100 μL was added to the plate and reacted at room temperature for 1 hour. 100 μL of TMB substrate was added and reacted for 3 minutes at room temperature, and 100 μL of 1 N sulfuric acid was then added to terminate the reaction. Then, the absorbance at 450 nm was measured to calculate the IC50 value of the compound. (+++: 1 to 100 nM, ++: greater than 100 to 1,000 nM, +: greater than 1,000 to 10,000 nM)

PRMT5-MEP50 enzyme complex, sequence (O14744 2-637): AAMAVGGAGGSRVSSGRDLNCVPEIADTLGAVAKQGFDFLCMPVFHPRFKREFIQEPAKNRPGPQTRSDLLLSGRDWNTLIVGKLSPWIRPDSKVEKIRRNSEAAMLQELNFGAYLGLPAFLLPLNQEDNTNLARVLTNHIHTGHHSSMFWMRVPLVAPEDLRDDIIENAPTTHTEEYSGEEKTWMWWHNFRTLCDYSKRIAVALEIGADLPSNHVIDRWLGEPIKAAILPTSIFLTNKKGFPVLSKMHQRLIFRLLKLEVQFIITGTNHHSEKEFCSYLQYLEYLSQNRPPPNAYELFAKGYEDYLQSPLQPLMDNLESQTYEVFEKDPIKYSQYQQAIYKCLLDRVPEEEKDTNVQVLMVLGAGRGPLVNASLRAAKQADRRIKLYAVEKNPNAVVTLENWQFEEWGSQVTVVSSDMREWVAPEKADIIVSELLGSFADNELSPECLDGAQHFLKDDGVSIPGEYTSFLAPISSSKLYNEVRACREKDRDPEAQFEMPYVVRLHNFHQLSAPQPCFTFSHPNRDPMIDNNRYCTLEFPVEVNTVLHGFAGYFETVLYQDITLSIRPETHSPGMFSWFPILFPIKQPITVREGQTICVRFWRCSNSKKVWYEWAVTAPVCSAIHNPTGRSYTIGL
PRMT5-MEP50 enzyme complex, sequence (Q9BQA1 2-342 partner): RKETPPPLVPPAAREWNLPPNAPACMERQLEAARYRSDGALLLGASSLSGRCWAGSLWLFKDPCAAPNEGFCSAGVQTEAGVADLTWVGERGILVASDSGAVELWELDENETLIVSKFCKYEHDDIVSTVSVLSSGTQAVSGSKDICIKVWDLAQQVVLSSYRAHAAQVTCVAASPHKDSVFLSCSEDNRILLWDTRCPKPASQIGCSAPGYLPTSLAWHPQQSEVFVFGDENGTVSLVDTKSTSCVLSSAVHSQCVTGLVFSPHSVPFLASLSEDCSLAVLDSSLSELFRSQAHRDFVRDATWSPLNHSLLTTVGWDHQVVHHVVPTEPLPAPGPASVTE

| SMILES | IC50 [nM] |
| --- | --- |
| CC(C)(O)CN1CCC(Oc2ccc3c(c2)OCCN(C[C@H](O)CN2CCc4ccccc4C2)C3=O)CC1 [Example 238, 4-[(2R)-3-(3,4-dihydro-1H-isoquinolin-2-yl)-2-hydroxy-propyl]-8-[[1-(2-hydroxy-2-methyl-propyl)-4-piperidyl]oxy]-2,3-dihydro-1,4-benzoxazepin-5-one] | 100 to 1000 |
| O=C1c2ccc(C(F)(F)F)cc2OCCN1C[C@H](O)CN1CCc2ccccc2C1 [Example 5, 4-[(2R)-3-(3,4-dihydro-1H-isoquinolin-2-yl)-2-hydroxy-propyl]-8-(trifluoromethyl)-2,3-dihydro-1,4-benzoxazepin-5-one] | 100 to 1000 |
| CC1(C)CN(C[C@H](O)CN2CCc3ccccc3C2)C(=O)c2ccc(C(=O)N3CCN4CCCC4C3)cc2O1 (stereo partly drawn) [Example 210, 8-(3,4,6,7,8,8a-hexahydro-1H-pyrrolo[1,2-a]pyrazine-2-carbonyl)-4-[(2R)-3-(3,4-dihydro-1H-isoquinolin-2-yl)-2-hydroxy-propyl]-2,2-dimethyl-3H-1,4-benzoxazepin-5-one] | 100 to 1000 |
| CCN1CCC(Oc2ccc3c(c2)N(C)CCN(C[C@H](O)CN2CCc4ccccc4C2)C3=O)C(F)C1 (stereo partly drawn) [Example 136, 4-[(2R)-3-(3,4-dihydro-1H-isoquinolin-2-yl)-2-hydroxy-propyl]-8-[(1-ethyl-3-fluoro-4-piperidyl)oxy]-1-methyl-2,3-dihydro-1,4-benzodiazepin-5-one] | 100 to 1000 |
| CC1(C)CN(C[C@H](O)CN2CCc3ccccc3C2)C(=O)c2ccc(C(=O)N3C4CCC3COC4)cc2O1 [Example 203, 4-[(2R)-3-(3,4-dihydro-1H-isoquinolin-2-yl)-2-hydroxy-propyl]-2,2-dimethyl-8-(3-oxa-8-azabicyclo[3.2.1]octan-8-carbonyl)-3H-1,4-benzoxazepin-5-one] | 100 to 1000 |
| CC(O)CN1CCC(Oc2ccc3c(c2)OCCN(C[C@H](O)CN2CCc4ccccc4C2)C3=O)CC1 (stereo partly drawn) [Example 212, 4-[(2R)-3-(3,4-dihydro-1H-isoquinolin-2-yl)-2-hydroxy-propyl]-8-[[1-(2-hydroxypropyl)-4-piperidyl]oxy]-2,3-dihydro-1,4-benzoxazepin-5-one] | 100 to 1000 |
| COCCN1CC[C@@H](Oc2ccc3c(c2)O[C@H](C)CN(C[C@H](O)CN2CCc4ccccc4C2)C3=O)C1 [Example 274, (2R)-4-[(2R)-3-(3,4-dihydro-1H-isoquinolin-2-yl)-2-hydroxy-propyl]-8-[(3R)-1-(2-methoxyethyl)pyrrolidin-3-yl]oxy-2-methyl-2,3-dihydro-1,4-benzoxazepin-5-one] | 100 to 1000 |
| Cc1nn(C)cc1-c1ccc2c(c1)OCCN(C[C@H](O)CN1CCc3ccccc3C1)C2=O [Example 231, 4-[(2R)-3-(3,4-dihydro-1H-isoquinolin-2-yl)-2-hydroxy-propyl]-8-(1,3-dimethylpyrazol-4-yl)-2,3-dihydro-1,4-benzoxazepin-5-one] | 1 to 100 |
| O=C1c2ccc(OC3CCN(C4CC4)CC3)cc2OCCN1C[C@H](O)CN1CCc2ccccc2C1 [Example 90, 8-[(1-cyclopropyl-4-piperidyl)oxy]-4-[(2R)-3-(3,4-dihydro-1H-isoquinolin-2-yl)-2-hydroxy-propyl]-2,3-dihydro-1,4-benzoxazepin-5-one] | 1 to 100 |
| CC(=O)N1CCC(Oc2ccc3c(c2)N(C)CCN(C[C@H](O)CN2CCc4ccccc4C2)C3=O)CC1 [Example 121, 8-[(1-acetyl-4-piperidyl)oxy]-4-[(2R)-3-(3,4-dihydro-1H-isoquinolin-2-yl)-2-hydroxy-propyl]-1-methyl-2,3-dihydro-1,4-benzodiazepin-5-one] | 100 to 1000 |
| O=C1c2ccc(CN3CCC[C@H]3CO)cc2OCCN1C[C@H](O)CN1CCc2ccccc2C1 [Example 46, 4-[(2R)-3-(3,4-dihydro-1H-isoquinolin-2-yl)-2-hydroxy-propyl]-8-[[(2S)-2-(hydroxymethyl)pyrrolidin-1-yl]methyl]-2,3-dihydro-1,4-benzoxazepin-5-one] | 100 to 1000 |
| O=C1c2ccc(CN3CCCC3)cc2OCCN1C[C@H](O)CN1CCc2ccccc2C1 [Example 24, 4-[(2R)-3-(3,4-dihydro-1H-isoquinolin-2-yl)-2-hydroxy-propyl]-8-(pyrrolidin-1-ylmethyl)-2,3-dihydro-1,4-benzoxazepin-5-one] | 1 to 100 |
| C[C@@H]1CN(C[C@H](O)CN2CCc3ccccc3C2)C(=O)c2ccc(OC3CCN(CC(C)(C)O)CC3)cc2O1 [Example 220, (2R)-4-[(2R)-3-(3,4-dihydro-1H-isoquinolin-2-yl)-2-hydroxy-propyl]-8-[[1-(2-hydroxy-2-methyl-propyl)-4-piperidyl]oxy]-2-methyl-2,3-dihydro-1,4-benzoxazepin-5-one] | 100 to 1000 |
| O=C(c1ccc2c(c1)OCCN(C[C@H](O)CN1CCc3ccccc3C1)C2=O)N1CC2CCCC2C1 (stereo partly drawn) [Example 193, 8-(3,3a,4,5,6,6a-hexahydro-1H-cyclopenta[c]pyrrol-2-carbonyl)-4-[(2R)-3-(3,4-dihydro-1H-isoquinolin-2-yl)-2-hydroxy-propyl]-2,3-dihydro-1,4-benzoxazepin-5-one] | 100 to 1000 |
| O=C1c2ccc(CN3CCCCC3CO)cc2OCCN1C[C@H](O)CN1CCc2ccccc2C1 (stereo partly drawn) [Example 41, 4-[(2R)-3-(3,4-dihydro-1H-isoquinolin-2-yl)-2-hydroxy-propyl]-8-[[2-(hydroxymethyl)-1-piperidyl]methyl]-2,3-dihydro-1,4-benzoxazepin-5-one] | 100 to 1000 |
| O=C(c1ccc2c(c1)OCCN(C[C@H](O)CN1CCc3ccccc3C1)C2=O)N1CCCC1 [Example 175, 4-[(2R)-3-(3,4-dihydro-1H-isoquinolin-2-yl)-2-hydroxy-propyl]-8-(pyrrolidin-1-carbonyl)-2,3-dihydro-1,4-benzoxazepin-5-one] | 100 to 1000 |
| O=C1c2ccc(C#Cc3cccnc3)cc2OCCN1C[C@H](O)CN1CCc2ccccc2C1 [Example 227, 4-[(2R)-3-(3,4-dihydro-1H-isoquinolin-2-yl)-2-hydroxy-propyl]-8-[2-(3-pyridyl)ethynyl]-2,3-dihydro-1,4-benzoxazepin-5-one] | 1 to 100 |
| CN1CC(Oc2ccc3c(c2)OCCN(C[C@H](O)CN2CCc4ccccc4C2)C3=O)C1 [Example 93, 4-[(2R)-3-(3,4-dihydro-1H-isoquinolin-2-yl)-2-hydroxy-propyl]-8-(1-methylazetidin-3-yl)oxy-2,3-dihydro-1,4-benzoxazepin-5-one] | 100 to 1000 |
| CC1(C)CN(C[C@H](O)CN2CCc3ccccc3C2)C(=O)c2ccc(OCc3ccncc3)cc2O1 [Example 113, 4-[(2R)-3-(3,4-dihydro-1H-isoquinolin-2-yl)-2-hydroxy-propyl]-2,2-dimethyl-8-(4-pyridylmethoxy)-3H-1,4-benzoxazepin-5-one] | 100 to 1000 |
| CCN1CC(COc2ccc3c(c2)OCCN(C[C@H](O)CN2CCc4ccccc4C2)C3=O)C1 [Example 97, 4-[(2R)-3-(3,4-dihydro-1H-isoquinolin-2-yl)-2-hydroxy-propyl]-8-[(1-ethylazetidin-3-yl)methoxy]-2,3-dihydro-1,4-benzoxazepin-5-one] | 100 to 1000 |
| O=C1c2ccc(OCc3ccc(F)cn3)cc2OCCN1C[C@H](O)CN1CCc2ccccc2C1 [Example 63, 4-[(2R)-3-(3,4-dihydro-1H-isoquinolin-2-yl)-2-hydroxy-propyl]-8-[(5-fluoro-2-pyridyl)methoxy]-2,3-dihydro-1,4-benzoxazepin-5-one] | 1 to 100 |
| CC(=O)N1CC=C(c2ccc3c(c2)OCCN(C[C@H](O)CN2CCc4ccccc4C2)C3=O)CC1 [Example 16, 8-(1-acetyl-3,6-dihydro-2H-pyridin-4-yl)-4-[(2R)-3-(3,4-dihydro-1H-isoquinolin-2-yl)-2-hydroxy-propyl]-2,3-dihydro-1,4-benzoxazepin-5-one] | 1 to 100 |
| CC(=O)N1CC(Oc2ccc3c(c2)O[C@H](C)CN(C[C@H](O)CN2CCc4ccccc4C2)C3=O)C1 [Example 142, (2R)-8-(1-acetylazetidin-3-yl)oxy-4-[(2R)-3-(3,4-dihydro-1H-isoquinolin-2-yl)-2-hydroxypropyl]-2-methyl-2,3-dihydro-1,4-benzoxazepin-5-one] | 1 to 100 |
| O=C(c1ccc2c(c1)OCCN(C[C@H](O)CN1CCc3ccccc3C1)C2=O)N1CCC(F)CC1 [Example 184, 4-[(2R)-3-(3,4-dihydro-1H-isoquinolin-2-yl)-2-hydroxy-propyl]-8-(4-fluoropiperidine-1-carbonyl)-2,3-dihydro-1,4-benzoxazepin-5-one] | 100 to 1000 |
